{"source": "patent US8710097B2", "about": "“Flavonoid dimers and methods of making and using such” (The Hong Kong Polytechnic University, priority 2006, dated 2014)", "key": {"[1]": {"tested_on": "P388/ADR cells", "assay": "cells", "conditions": "P388/ADR", "method": "MDA435/LCC6 and P388 (both parent and MDR subtype) were maintained in DMEM and RPMI 1640 culture medium supplemented with 10% FBS, respectively. RPMI 1640 media also contained 100 units/ml penicillin and 100 μg/ml streptomycin. Cells were cultured at 37° C. in a humidified atmosphere with 5% CO2. A solution of 0.05% trypsin-EDTA was used to detach the MDA435/LCC6 (both wild type and MDR subtype) cells.\nCell proliferation assay. MDA435/LCC6 and P388 (both parent and MDR subtype) cells were seeded at 2000 and 5000 cells per well, respectively, in 96-well plates. Varying concentrations of anticancer drugs (Doxorubicin, Daunorubicin, Vincristine, Vinblastine, taxol, Mitoxantrone) with or without the flavonoid dimers were added in a final volume of 200 μl and cells were grown for 4 and 3 days for MDA435/LCC6 and P388 (both parent and MDR subtype) cells, respectively. For MDA435/LCC6 (both parent and MDR subtype), the corresponding drugs were added after cell attachment (24 hr incubation). To measure cell proliferation, the cell Titer 960 Aqueous Assay (Promega) was used according to the manufacturer's instructions. Briefly, MTS (2 mg/ml) and PMS (0.92 mg/ml) were mixed in a ratio of 20:1. 30 μl MTS/PMS mixture was added into each well and incubated for 2 hours at 37° C. Optical absorbance at 490 nm was then recorded using an ELISA microtiter plate reader (Bio-Rad). Each experiment was done at least in triplicate and repeated twice. Cytotoxicity of the anticancer drugs was expressed as the fraction of the cells survived relative to the untreated DMSO (0.05%) solvent controls."}, "[2]": {"tested_on": "wild type L. donovani LdAG83 promastigotes", "assay": "Leishmania cell viability (MTS) assay", "format": "cell-based, Leishmania donovani"}, "[3]": {"tested_on": "LePentR50 promastigotes", "assay": "Pentamidine accumulation assay by HPLC", "format": "cell-based, Leishmania enriettii", "conditions": "0.84 mM pentamidine, 3 hr", "method": "The effect of flavonoid dimers on accumulation of pentamidine was investigated. […] After 3 hrs of incubation, the parasites were washed three times with cold PBS, pH 7.4. The cell pellet was then dissolved in 350 μL 75% acetonitrile and lysed by repeated freeze-thaw cycles. After lysing, the lysed cell suspension was centrifuged at 14,000 g at 4° C. for 10 min. The supernatant was collected and ready for determining pentamidine concentration using HPLC (Agilent 1100 Series). The pentamidine pools were analyzed on Zorbax ODS C18 column (4.6 mm×25 cm, 5-micron) kept at 40° C. The mobile phase consisted of water (10 mM tetramethylammonium chloride (TMAC), 10 mM sodium heptanesulphonate (SHS), 4.2 mM phosphoric acid (PA)) for pump A and 75% acetonitrile (ACN) in water (10 mM TMAC, 10 mM SHS, 4.2 mM PA) for pump B. The column was equilibrated at 40° C. overnight before analyses. Using a flow rate of 1.0 mL/min and signal at 265 nm, analyses were made at 58% pump A and 42% pump B. The retention time of pentamidine is 3.2 min. Compound 9d would not be eluted out under these conditions. To generate a standard curve, a 200 μM stock solution of pentamidine isethionate salt were prepared by dissolving 2.5 mg pentamidine isethionate salt in 21 mL 75% ACN (10 mM TMAC, 10 mM SHS, 4.2 mM PA). Concentration of 100, 50, 25 and 13 μM were then made by serial dilution, allowing the generation of standard curve."}}}
{"smiles": "O=c1cc(-c2ccc(OCCOCCOCCOCCOc3ccc(-c4cc(=O)c5c(O)cc(O)cc5o4)cc3)cc2)oc2cc(O)cc(O)c12", "note": "[Compound 9d, 1,13-Bis[4′-((5,7-dihydroxy)-4H-chromen-4-on-2-yl)phenyl]-1,4,7,10,13-pentaoxamidecane]", "values": [{"measurement": "reversal of resistance to taxol, vincristine and vinblastine", "setting": "[1]; 5 μM 9d", "result": "completely reverse the resistance of P388/ADR to almost the sensitive level"}, {"measurement": "effect on mitoxantrone resistance", "setting": "[1]; 9d", "result": "no effect"}, {"measurement": "saturating concentration for reversing doxorubicin and daunorubicin resistance", "setting": "[1]; FIG. 8B, 9B", "result": "about 5 μM"}, {"measurement": "RF, daunorubicin", "setting": "[1]; daunorubicin + 5 μM 9d or VP", "result": 20}, {"measurement": "RF, doxorubicin", "setting": "[1]; doxorubicin + 5 μM 9d", "result": 14}, {"measurement": "RF, mitoxantrone", "setting": "[1]; mitoxantrone + 5 μM 9d", "result": 2}, {"measurement": "RF, taxol", "setting": "[1]; taxol + 5 μM 9d", "result": 55}, {"measurement": "RF, vinblastine", "setting": "[1]; vinblastine + 5 μM 9d", "result": 22}, {"measurement": "RF, vincristine", "setting": "[1]; vincristine + 5 μM 9d", "result": 66}, {"measurement": "modulating effect on SSG sensitivity", "setting": "[2]; LdAG83, up to 6 μM, FIG. 17C", "result": "did not have any modulating effect"}, {"measurement": "modulatory effect on SSG sensitivity", "setting": "[2]; SSG-sensitive wild type LdAG83, FIG. 14D", "result": "no modulatory effect"}, {"measurement": "IC50", "setting": "[2]; cytotoxicity of compound alone, 72 hrs, read-out: IC50(μM) of synthetic flavonoid, LdAG83", "result": "7 ± 0.4", "unit": "µM"}, {"measurement": "intracellular pentamidine concentration", "setting": "[3]; 15 μM 9d", "result": "2.95±0.01", "unit": "μM pentamidine/mg protein"}, {"measurement": "intracellular pentamidine concentration", "setting": "[3]; 30 μM 9d", "result": "4.69±0.51", "unit": "μM pentamidine/mg protein"}, {"measurement": "intracellular pentamidine concentration", "setting": "[3]; 60 μM 9d", "result": "26.6±0.6", "unit": "μM pentamidine/mg protein"}]}
